The results in this text go back to patent US11162951B2, “Membrane-impermeant fluorogenic chromophores” (PARIS SCIENCES ET LETTRES, priority 2017, dated 2021).

The structures appear in SMILES notation. Several values for one entry are separate records, joined by “and”; a condition that tells them apart may be missing. Equal entries are not always repeated. Entries after “also recorded” stand apart in the source; their conditions may differ.

Series [1] addresses T1, FAST (variant of the photoactive yellow protein (PYP), SEQ ID NO: 3) (Halorhodospira halophila, UniProt P16113, C69G/D97P/F96I/M100R/Q99S/T101G/T95M/Y94W/Y98T).
T1 construct: His tag; made in house; host or cells: Rosetta(DE3)pLysS E. coli
The series can be described thus: Physico-chemical (absorption/fluorescence) properties of FAST:fluorogen complexes. The class given is physicochemical. The settings on record: for Brightness (ε×ϕ) / ε, molar absorption coefficient at λabs / λabs, wavelength of maximal absorption / λem, wavelength of maximal emission / ϕ, fluorescence quantum yield: FAST:fluorogen complex in PBS pH 7.4. How it is done:
In an embodiment, the fluorescence quantum yields after one-photon excitation ϕ are calculated from the relation: […]
Methods for measuring the brightness are well-known in the art. Brightness corresponds to the fluorescence output per emitter and is the product of the molar absorption coefficient (at the excitation wavelength) and the fluorescence quantum yield.
(§1) His-tagged FAST was expressed in Rosetta(DE3)pLysS E. coli (New England Biolabs). Cells were grown at 37° C. in Lysogeny Broth (LB) medium to OD600 nm 0.6. Expression was induced for 4 h by adding isopropyl β-D-1-thiogalactopyranoside (IPTG) to a final concentration of 1 mM. Cells were harvested by centrifugation (6,000×g for 15 min at 4° C.) and frozen. The cell pellet was resuspended in lysis buffer (phosphate buffer 50 mM, NaCl 150 mM, MgCl2 2.5 mM, protease inhibitor, DNase, pH 7.4) and sonicated (5 min at 20% of amplitude). The lysate was incubated for 2 h at 4° C. to allow DNA digestion by DNase. Cellular fragments were removed by centrifugation (15,000×g for 1 h at 4° C.). The supernatant was incubated overnight at 4° C. under gentle agitation with Ni-NTA agarose beads in phosphate buffered saline (PBS) (sodium phosphate 50 mM, NaCl 150 mM, pH 7.4) complemented with 10 mM Imidazole. Beads were washed with 20 volumes of PBS containing 20 mM Imidazole, and with 5 volumes of PBS complemented with 40 mM Imidazole. His-tagged proteins were eluted with 5 volumes of PBS complemented with 0.5 M Imidazole, followed by dialysis with PBS.
(§2) UV/Vis absorption spectra were recorded in 1 cm×1 cm quartz cuvettes (Hellma) on a diode array UV/Vis spectrophotometer (Evolution array, Thermo Scientific). Corrected fluorescence spectra upon one-photon excitation were recorded with a Photon Technology International QuantaMaster QM-1 spectrofluorimeter (PTI, Monmouth Junction, N.J.) equipped with a Peltier cell holder (TLC50, Quantum Northwest, Shoreline, Wash.).
(§3) Physico-chemical properties of FAST:fluorogen complexes in PBS pH 7.4 are described in Table 2 below: λabs, wavelength of maximal absorption; λem, wavelength of maximal emission; ε, molar absorption coefficient at λabs; ϕ, fluorescence quantum yield; KD affinity constant. The brightness is equal to ε×ϕ.

The target of series [2] is T1, FAST (variant of the photoactive yellow protein (PYP), SEQ ID NO: 3). The series can be described thus: biochemical. It is filed as binding. The settings on record: for Kd: KD affinity constant, FAST:fluorogen complex in PBS pH 7.4. On the procedure:
In an embodiment, the thermodynamic dissociation constant KD is determined by spectrofluorometric titration as described in the Examples.
as §1, §2, §3

Series [3] relates to HeLa cells displaying FAST on the extracellular side (Ig κ-chain leader / PDGFR transmembrane domain). The series can be described thus: Selective labeling of cell-surface FAST-tagged proteins, confocal imaging. The class given is cell-based. The settings on record: for Localisation of fluorescent labeling of FAST-tagged protein: 5 min. How it is done:
(§4) The plasmid pAG211 for mammalian expression of FAST (fused also to mCherry as additional transfection marker) at the outer plasma membrane was obtained by inserting the sequence coding the protein of interest within the pDisplay plasmid (ThermoFisher) using Sal I and Bgl II restriction sites. The plasmid pAG96 for cytoplasmic expression of FAST fused to mCherry was previously reported (Plamont, M.-A. et al., 2016).
(§5) HeLa cells were cultured in DMEM supplemented with phenol red, Glutamax I, 10% (vol/vol) fetal calf serum (FCS), and 1% penicillin-streptomycin at 37° C. within a 5% CO2 atmosphere. For microscopic imaging, cells were seeded in μDish or μSlide IBIDI (Biovalley) coated with poly-L-lysine. Cells were transiently transfected using Genejuice (Merck) according to the manufacturer's protocol. Before imaging, cells were washed with PBS, and treated with DMEM media (without serum and phenol red) containing the fluorogens at the indicated concentration. Cells were imaged directly without washing.
(§6) Confocal micrographs were acquired on a Zeiss LSM 710 Laser Scanning Microscope equipped with a Plan Apochromat 63×/1.4 NA oil immersion objective. ZEN software was used to collect the data. Images were analyzed with Image J. Flow cytometry analyses were performed on an Accuri C6 cytometer (BD Biosciences).
Next, the use of HBRAA-3E for the selective labeling of cell-surface FAST-tagged proteins was studied. A polypeptide was engineered comprising a FAST in between a murine Ig κ-chain leader sequence and the platelet derived growth factor receptor (PDGFR) transmembrane domain. FAST was fused at the […] of the PDGFR transmembrane domain, which anchors the protein to the plasma membrane. The resulting FAST-tagged protein was expressed transiently in HeLa cells.

The subject of series [4] is HeLa cells expressing FAST fused to mCherry in the cytoplasm. The series can be described thus: Cell exclusion after prolonged exposure, confocal imaging. It is filed as cell-based. The note with it: 5 μM, two hours, cytoplasmic FAST-mCherry. How it is done:
as §4, §5, §6
Cell exclusion after prolonged exposure was then evaluated. […]

T1 sequence (P16113 whole entry C69G/Y94W/T95M/F96I/D97P/Y98T/Q99S/M100R/T101G): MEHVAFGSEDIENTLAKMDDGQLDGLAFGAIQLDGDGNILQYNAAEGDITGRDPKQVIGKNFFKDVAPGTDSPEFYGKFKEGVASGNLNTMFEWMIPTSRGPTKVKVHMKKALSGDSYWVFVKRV

Usually Kd stands for the constant that tells how readily two partners part at equilibrium. For the compound `Cc1cc(/C=C2\SC(=S)N(CC(=O)O)C2=O)c(C)cc1O` [HBRAA-2,5DM, (Z)-2-(5-(4-hydroxy-2,5-dimethylbenzylidene)-4-oxo-2-thioxothiazolidin-3-yl)acetic acid], in series [1], the “Brightness (ε×ϕ)” value is 3,200; the “ε, molar absorption coefficient at λabs” value was determined as 63 mM⁻¹ cm⁻¹; the “λabs, wavelength of maximal absorption” value was 519 nm; the “λem, wavelength of maximal emission” value amounted to 566 nm. For the same compound, the “ϕ, fluorescence quantum yield” value in series [1] amounted to 5%. Besides, in series [2], the “Affinity for FAST, in words” value is “none of the complexes formed by di-substituted compounds HBRAA-2,5DM, HBRAA-3,5DM and HBRAA-3,5DMO has an affinity higher than the one of HBRAA-3M”; the equilibrium dissociation constant (Kd) worked out at 5.4 µM.

With `COc1cc(/C=C2\SC(=S)N(CC(=O)O)C2=O)ccc1O` [HBRAA-3OM, (Z)-2-(5-(4-hydroxy-3-methoxybenzylidene)-4-oxo-2-thioxothiazolidin-3-yl)acetic acid], in series [1], the “λabs, wavelength of maximal absorption” value is given as 520 nm; the “λem, wavelength of maximal emission” value is on record as 572 nm; the “ϕ, fluorescence quantum yield” value came out at 2%. In series [2], the “Affinity for FAST, in words” value was “almost no affinity with FAST” and the Kd is greater than 20 µM.

For `O=C(O)CN1C(=O)/C(=C/c2ccc(O)cc2)SC1=S` [HBRAA, (Z)-2-(5-(4-hydroxybenzylidene)-4-oxo-2-thioxothiazolidin-3-yl)acetic acid], in series [1], the “λabs, wavelength of maximal absorption” value stood at 488 nm and the “λem, wavelength of maximal emission” value came to 555 nm. Also, in series [2], the “Affinity for FAST, in words” value was “almost no affinity for FAST” and the Kd is greater than 20 µM.

Take `COc1cc(O)ccc1/C=C1\SC(=S)N(CC(=O)O)C1=O` [HBRAA-2OM, (Z)-2-(5-(4-hydroxy-2-methoxybenzylidene)-4-oxo-2-thioxothiazolidin-3-yl)acetic acid]: in series [1], the “Brightness (ε×ϕ)” value was “about 2,800”; the “ε, molar absorption coefficient at λabs” value is 55 mM⁻¹ cm⁻¹; the “λabs, wavelength of maximal absorption” value is on record as 497 nm; the “λem, wavelength of maximal emission” value came out at 537 nm. The “ϕ, fluorescence quantum yield” value in series [1] turned out to be 5%. Further, in series [1] (listed as FAST:HBRAA-2OM), the “Brightness (ε×ϕ)” value is recorded as 2,800. The Kd in series [2] is 0.5 µM and 0.48 µM.

Consider `Cc1cc(/C=C2\SC(=S)N(CC(=O)O)C2=O)cc(C)c1O` [HBRAA-3,5DM, (Z)-2-(5-(4-hydroxy-3,5-dimethylbenzylidene)-4-oxo-2-thioxothiazolidin-3-yl)acetic acid], for which, in series [1], the “λabs, wavelength of maximal absorption” value worked out at 522 nm; the “λem, wavelength of maximal emission” value is recorded as 571 nm; the “ϕ, fluorescence quantum yield” value came to 4%. In series [2], the “Affinity for FAST, in words” value was “none of the complexes formed by di-substituted compounds HBRAA-2,5DM, HBRAA-3,5DM and HBRAA-3,5DMO has an affinity higher than the one of HBRAA-3M”; the Kd is greater than 20 µM.

Consider `COc1cc(/C=C2\SC(=S)N(CC(=O)O)C2=O)cc(OC)c1O` [HBRAA-3,5DOM, (Z)-2-(5-(4-hydroxy-3,5-dimethoxybenzylidene)-4-oxo-2-thioxothiazolidin-3-yl)acetic acid], for which, in series [1], the “λabs, wavelength of maximal absorption” value was 532 nm; the “λem, wavelength of maximal emission” value amounted to 606 nm; the “ϕ, fluorescence quantum yield” value came out at 1%. Moreover, in series [2], the “Affinity for FAST, in words” value was “none of the complexes formed by di-substituted compounds HBRAA-2,5DM, HBRAA-3,5DM and HBRAA-3,5DMO has an affinity higher than the one of HBRAA-3M”; the Kd was greater than 20 µM.

Regarding `Cc1cc(/C=C2\SC(=S)NC2=O)ccc1O` [HMBR, 4-hydroxy-3-methylbenzylidene rhodanine, reference compound], the “Localisation of fluorescent labeling of FAST-tagged protein” value in series [3] (5 μM) is “labeling of FAST-tagged proteins both at the membrane and within the secretory pathway; also recorded: revealed membrane and intracellular proteins”. For the same compound, the “Labeling after subsequent addition to cells pre-treated 1 h with HBRAA-3E” value in series [3] (immediate imaging (<10 s)) is “revealed proteins within the secretory pathway”.

For `Cc1cc(/C=C2\SC(=S)N(CC(=O)O)C2=O)ccc1O` [HBRAA-3M, (Z)-2-(5-(4-hydroxy-3-methylbenzylidene)-4-oxo-2-thioxothiazolidin-3-yl)acetic acid], in series [1], the “Brightness (ε×ϕ)” value is 3,400; the “ε, molar absorption coefficient at λabs” value came out at 56 mM⁻¹ cm⁻¹; the “λabs, wavelength of maximal absorption” value was 502 nm; the “λem, wavelength of maximal emission” value is listed as 557 nm. Besides, the “ϕ, fluorescence quantum yield” value in series [1] stood at 6%. The “Brightness compared with FAST:HMBR” value in series [1] (in words) is recorded as “three-fold lower brightness”. The compound further yielded a Kd in series [2] of 6.4 µM.

As for `CCc1cc(/C=C2\SC(=S)N(CC(=O)O)C2=O)ccc1O` [HBRAA-3E, (Z)-2-(5-(3-ethyl-4-hydroxybenzylidene)-4-oxo-2-thioxothiazolidin-3-yl)acetic acid], in series [4], the “Intracellular labeling (cell exclusion)” value is “no intracellular labeling”. For the same compound, in series [1], the “Red shift in absorption compared to FAST:HMBR” value was 25 nm; the “Red shift in emission compared to FAST:HMBR” value was determined as 20 nm; the “Brightness (ε×ϕ)” value is listed as “about 4,900”; the “ε, molar absorption coefficient at λabs” value amounted to 61 mM⁻¹ cm⁻¹. For the same compound, in series [1], the “λabs, wavelength of maximal absorption” value is given as 505 nm; the “λem, wavelength of maximal emission” value is listed as 559 nm; the “ϕ, fluorescence quantum yield” value was found to be 8%. Besides, the “Brightness (ε×ϕ)” value in series [1] (listed as FAST:HBRAA-3E) is on record as 4,900. The “Localisation of fluorescent labeling of FAST-tagged protein” value in series [3] (5 μM) is reported as “fluorescent labeling only at the plasma membrane; also recorded: revealed only surface-exposed proteins”. Further, the “Intracellular labeling upon longer incubation” value in series [3] (5 μM, 1 h) was “no intracellular labeling”. The Kd in series [2] is ~1.3 µM and 1.3 µM.

As to `CCOc1cc(/C=C2\SC(=S)N(CC(=O)O)C2=O)ccc1O` [HBRAA-3OE, (Z)-2-(5-(4-hydroxy-3-ethoxybenzylidene)-4-oxo-2-thioxothiazolidin-3-yl)acetic acid], in series [1], the “Brightness (ε×ϕ)” value is recorded as “about 3,700”; the “ε, molar absorption coefficient at λabs” value was determined as 62 mM⁻¹ cm⁻¹; the “λabs, wavelength of maximal absorption” value was found to be 525 nm; the “λem, wavelength of maximal emission” value is 575 nm. Besides, in series [1], the “ϕ, fluorescence quantum yield” value is recorded as 6%. Moreover, the “Brightness (ε×ϕ)” value in series [1] (listed as FAST:HBRAA-3OE) is reported as 3,700. Moreover, the “Shift of absorption and emission of the FAST complex compared with HBRAA-3E” value in series [1] (in words) is “further red-shifted the absorption and the emission”. Besides, in series [2], the Kd turned out to be 1.7 µM.

For the compound `O=C1NC(=S)S/C1=C\c1ccc(O)cc1` [HBR, 4-hydroxybenzylidene rhodanine, reference compound], in series [1], the “Brightness (ε×ϕ)” value is recorded as 4,000; the “ε, molar absorption coefficient at λabs” value came out at 44 mM⁻¹ cm⁻¹; the “λabs, wavelength of maximal absorption” value is reported as 467 nm; the “λem, wavelength of maximal emission” value amounted to 527 nm. For the same compound, the “ϕ, fluorescence quantum yield” value in series [1] was 9%.
